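Test compounds were applied to cells in 96-well plates for 48 hours at 5 doses. GI50 is the concentration that inhibits growth by half.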 Activity calls are given as the source filed them. No stated cut-off is given here; in the data, active = GI50 up to about 1.1 µM and inactive = higher. A value given as a limit tells only on which side of the number the result lay.

These results are taken from ChEMBL document CHEMBL1201862, “PubChem BioAssay data set” (2004).

Some test systems named below: SF-268; SK-MEL-28; OVCAR-3; RPMI-8226; MDA-N; MOLT-4; NCI/ADR-RES; CAKI-1; CCRF-CEM; SR; RXF 393; OVCAR-8; 786-0; UACC-62; A498; M14; MDA-MB-231; LOX IMVI; Hs-578T.
Holding throughout (experiment): NCI-60 cell line screen, 48 h

Turning to `O=C1c2ccccc2-c2nc3ccncc3n21`, the GI50 in the test with SF-268 is > 100 µM (inactive); in the test with SK-MEL-28, > 100 µM (inactive); in the test on OVCAR-3 it was > 100 µM (inactive); in the test with RPMI-8226 it was > 100 µM (inactive); in the test with MDA-N, 31.1 µM (inactive); in the test with MOLT-4 it was > 100 µM (inactive). For the same molecule, the GI50 with NCI/ADR-RES, with CAKI-1, with CCRF-CEM, in the test with SR, in the test on RXF 393 and in the test with OVCAR-8 was > 100 µM (inactive) each time. In addition, the GI50 in the test on 786-0 and with UACC-62 was > 100 µM (inactive) throughout.
As to `O=C1CCN2C(=O)CCN12`, the GI50 with SF-268, with SK-MEL-28, with OVCAR-3, in the test on RPMI-8226, with MOLT-4 and in the test on A498 was > 100 µM (inactive) in each case. Moreover, the GI50 in the test on CAKI-1, with CCRF-CEM, in the test on SR, with OVCAR-8, in the test with 786-0 and in the test on UACC-62 was > 100 µM (inactive) each time. Also, the GI50 with M14 is > 100 µM (inactive).
In the case of `C/C(CCN(C)C)=N/O`, the GI50 with SF-268 is 1.49 µM (inactive); in the test on SK-MEL-28 it was 7.13 µM (inactive); in the test on OVCAR-3, 1.29 µM (inactive); in the test on RPMI-8226, 0.313 µM (active); in the test on MOLT-4, 0.328 µM (active); in the test with CAKI-1, 1.02 µM (active). The GI50 with CCRF-CEM was 0.194 µM (active); with SR it was 0.281 µM (active); in the test with RXF 393, 6.05 µM (inactive); in the test on OVCAR-8, 0.826 µM (active); with 786-0, 2.81 µM (inactive); in the test on UACC-62, 1.15 µM (inactive). In addition, in the test on M14, the GI50 is 0.859 µM (active).
As to `CNC(=O)CCCNC(=O)CCCCC(=O)N(C)C`, the GI50 in the test on SF-268 was > 100 µM (inactive); in the test with SK-MEL-28, > 100 µM (inactive); with OVCAR-3 it was > 100 µM (inactive); in the test on RPMI-8226 it was > 100 µM (inactive); in the test on MDA-N it was > 100 µM (inactive); with MOLT-4, 89.5 µM (inactive). Moreover, the GI50 in the test on A498, in the test with NCI/ADR-RES, in the test with MDA-MB-231, in the test with CAKI-1, with RXF 393 and in the test with OVCAR-8 was > 100 µM (inactive) in each case. Moreover, the GI50 in the test on 786-0, in the test with UACC-62 and with M14 was > 100 µM (inactive) each time.
With `CN(C)c1ccc(/C=N/c2ccc(-c3nc4ccccc4s3)cc2)cc1`, the GI50 in the test on SK-MEL-28 is 48.9 µM (inactive); in the test with OVCAR-3, 15.9 µM (inactive); in the test on RPMI-8226, 25.6 µM (inactive); in the test with MDA-N it was 34.5 µM (inactive); in the test on MOLT-4 it was 23.2 µM (inactive); in the test on A498 it was 10.2 µM (inactive). In addition, the GI50 is 28.9 µM (inactive) in the test with NCI/ADR-RES; 28.6 µM (inactive) in the test with CAKI-1; 0.578 µM (active) in the test on CCRF-CEM; 36.3 µM (inactive) in the test on SR; 17.9 µM (inactive) with RXF 393; 39.5 µM (inactive) with OVCAR-8. Further, the GI50 in the test with 786-0 is 20.2 µM (inactive); in the test on UACC-62, 8.59 µM (inactive); in the test with LOX IMVI, 33.3 µM (inactive); with M14, 41.1 µM (inactive).
Take `CCCc1n[nH]c(=O)n1N1C(=O)C=CC1=O`: the GI50 with OVCAR-3, with MDA-N, in the test on MOLT-4, in the test with A498, in the test on MDA-MB-231 and in the test on CAKI-1 was > 100 µM (inactive) throughout. Also, the GI50 with CCRF-CEM, with SR, with RXF 393, with 786-0, with UACC-62 and in the test with M14 was > 100 µM (inactive) throughout.
Regarding `Cc1cc2c(-c3ccccc3)cc(=O)[nH]c2cc1N`, the GI50 with SK-MEL-28, in the test with OVCAR-3, with RPMI-8226, with MDA-N, in the test with MOLT-4 and in the test with A498 was > 100 µM (inactive) in each case. The GI50 in the test on NCI/ADR-RES, with MDA-MB-231, with CAKI-1, in the test with CCRF-CEM, in the test on SR and in the test with RXF 393 was > 100 µM (inactive) in each case. The GI50 in the test with OVCAR-8, in the test on 786-0, with UACC-62, in the test with LOX IMVI and in the test with M14 was > 100 µM (inactive) throughout.
On to `COc1ccc(/C=c2\c(=O)[nH]c3nc4ccccc4c(=O)n23)cc1`, for which the GI50 is > 100 µM (inactive) in the test with SF-268; 42.5 µM (inactive) with SK-MEL-28; 81.5 µM (inactive) in the test with OVCAR-3; 58.3 µM (inactive) in the test with RPMI-8226; 56.5 µM (inactive) in the test on MOLT-4; > 100 µM (inactive) with NCI/ADR-RES. Besides, the GI50 was > 100 µM (inactive) with MDA-MB-231; 55.8 µM (inactive) in the test with CAKI-1; 39.9 µM (inactive) in the test with CCRF-CEM; 48.2 µM (inactive) with SR; 46.1 µM (inactive) with RXF 393; > 100 µM (inactive) in the test on OVCAR-8. Moreover, the GI50 in the test on 786-0 is 99.5 µM (inactive); with UACC-62, 42 µM (inactive); in the test with LOX IMVI, 45.9 µM (inactive); with Hs-578T, > 100 µM (inactive); in the test on M14, 75.2 µM (inactive).
Regarding `CC1(C)O[C@@H]([C@H](O)CO)[C@H](O)[C@@H](C2SCCCS2)O1`, the GI50 with SF-268 was > 100 µM (inactive); in the test with SK-MEL-28, > 100 µM (inactive); in the test with OVCAR-3, > 100 µM (inactive); with RPMI-8226 it was 50.6 µM (inactive); in the test with MOLT-4 it was > 10 µM (inactive); in the test with A498, 59.8 µM (inactive). The GI50 is > 100 µM (inactive) in the test on NCI/ADR-RES; > 100 µM (inactive) with MDA-MB-231; > 100 µM (inactive) in the test on CAKI-1; 23.2 µM (inactive) with SR; > 100 µM (inactive) in the test on RXF 393; > 100 µM (inactive) with OVCAR-8. Besides, the GI50 in the test with 786-0, in the test with UACC-62 and in the test with M14 was > 100 µM (inactive) in each case.
In the case of `N#CC1(C#N)NC(c2cccnc2)C(C#N)(C#N)NC1c1cccnc1` (stereo unspecified), the GI50 with SF-268, in the test on SK-MEL-28, with OVCAR-3, in the test with RPMI-8226, with MDA-N and in the test with MOLT-4 was > 100 µM (inactive) each time. Further, the GI50 is > 100 µM (inactive) in the test on A498; > 100 µM (inactive) in the test on NCI/ADR-RES; > 100 µM (inactive) in the test on MDA-MB-231; > 100 µM (inactive) with CAKI-1; > 100 µM (inactive) in the test on CCRF-CEM; 28.1 µM (inactive) in the test with RXF 393. In addition, the GI50 in the test on OVCAR-8, with 786-0, in the test with UACC-62, in the test on LOX IMVI and in the test on M14 was > 100 µM (inactive) each time.
As to `Nc1c(C(=O)c2ccc(Cl)c(Cl)c2)[nH]c(NCc2ccccc2)c1C(=S)Nc1ccccc1`, the GI50 is 14.1 µM (inactive) in the test with SF-268; 4.63 µM (inactive) with SK-MEL-28; 17.5 µM (inactive) in the test on OVCAR-3; 2.65 µM (inactive) with RPMI-8226; 3.64 µM (inactive) in the test with MDA-N; 3.31 µM (inactive) in the test with MOLT-4. In addition, the GI50 was 15.3 µM (inactive) with A498; 2.08 µM (inactive) in the test with NCI/ADR-RES; 4.73 µM (inactive) with MDA-MB-231; 15.3 µM (inactive) in the test on CAKI-1; 3.1 µM (inactive) in the test on SR; 10.4 µM (inactive) in the test with RXF 393. The GI50 in the test on OVCAR-8 is 14.7 µM (inactive); with 786-0, 11.2 µM (inactive); in the test on UACC-62 it was 14.3 µM (inactive); in the test with LOX IMVI, 2.21 µM (inactive); with M14, 3.56 µM (inactive).
For `O=c1[nH]c(=S)c2cc3c(=S)[nH]c(=O)n(CCO)c3nc2n1CCO`, the GI50 in the test with SF-268, in the test with SK-MEL-28, in the test with OVCAR-3, in the test with RPMI-8226, in the test on MDA-N and in the test on MOLT-4 was > 100 µM (inactive) in each case. The GI50 in the test with A498, in the test with NCI/ADR-RES, with MDA-MB-231, with CAKI-1, in the test with CCRF-CEM and in the test with SR was > 100 µM (inactive) each time. The GI50 with RXF 393, with OVCAR-8, with 786-0, in the test on LOX IMVI and in the test with M14 was > 100 µM (inactive) in each case.
`O=C(O)c1ccccc1NS(=O)(=O)c1ccc([N+](=O)[O-])cc1`: the GI50 in the test with SF-268, in the test on SK-MEL-28, in the test with OVCAR-3, with RPMI-8226, in the test on MOLT-4 and in the test with CAKI-1 was > 100 µM (inactive) throughout. Also, the GI50 with CCRF-CEM, in the test with RXF 393, with OVCAR-8, in the test with 786-0, in the test with UACC-62 and with LOX IMVI was > 100 µM (inactive) each time. Moreover, the GI50 in the test with M14 is > 100 µM (inactive).
